Measurements as given in patent US12077503B2, “Substituted cyclic amides and their use as herbicides” (FMC CORPORATION, priority 2015, dated 2024).

Tests used:
Assay type in all cases: in vivo
corn (Zea mays) [1] = experiment: Test G Pre-Emergence Protocol; settings: Zea mays, pre-emergence, 312 h, evaluated after 13 days; for plant injury at 15.625 g/ha: 15.625 g ai/ha; for plant injury at 15.625 g/ha / plant injury at 250 g/ha: read-out: Corn damage rating (100=total damage to plant; 0=no damage to plant); for plant injury at 62.5 g/ha: 62.5 g ai/ha, 100=total damage to plant, 0=no damage to plant, read-out: Corn damage rating; for plant injury at 250 g/ha: 250 g ai/ha
How it was run: (§1)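 Visual injury (0–100) at day 13 after a single pre-emergence spray. Rates: 15.625, 62.5, 250 g/ha in acetone–water 50:50 with 0.5% Tween 20. Growth conditions: 24/16° C, 14 h light, 65% humidity.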

[2] = system: barnyardgrass (Echinochloa crus-galli); experiment: Test G Pre-Emergence Protocol; settings: Echinochloa crus-galli, pre-emergence, 312 h, evaluated after 13 days; for pest or weed control at 15.625 g/ha: 15.625 g ai/ha; for pest or weed control at 15.625 g/ha / pest or weed control at 250 g/ha: read-out: Barnyardgrass damage rating (100=total damage to plant; 0=no damage to plant); for pest or weed control at 62.5 g/ha: 62.5 g ai/ha, 100=total damage to plant, 0=no damage to plant, read-out: Barnyardgrass damage rating; for pest or weed control at 250 g/ha: 250 g ai/ha
How it was run: as §1

[3] = system: velvetleaf (Abutilon theophrasti); experiment: Test G Pre-Emergence Protocol; settings: Abutilon theophrasti, pre-emergence, 312 h, evaluated after 13 days; for pest or weed control at 15.625 g/ha: 15.625 g ai/ha; for pest or weed control at 15.625 g/ha / pest or weed control at 250 g/ha: read-out: Velvetleaf damage rating (100=total damage to plant; 0=no damage to plant); for pest or weed control at 62.5 g/ha: 62.5 g ai/ha, 100=total damage to plant, 0=no damage to plant, read-out: Velvetleaf damage rating; for pest or weed control at 250 g/ha: 250 g ai/ha
How it was run: as §1

[4] = system: ivy-leaved morning glory (Ipomoea hederacea); experiment: Test G Pre-Emergence Protocol; settings: Ipomoea, pre-emergence, 312 h, evaluated after 13 days; for pest or weed control at 15.625 g/ha: 15.625 g ai/ha; for pest or weed control at 15.625 g/ha / pest or weed control at 250 g/ha: read-out: Morningglory, Ivy-leaved damage rating (100=total damage to plant; 0=no damage to plant); for pest or weed control at 62.5 g/ha: 62.5 g ai/ha, 100=total damage to plant, 0=no damage to plant, read-out: Morningglory, Ivy-leaved damage rating; for pest or weed control at 250 g/ha: 250 g ai/ha
How it was run: as §1

[5] = system: redroot pigweed (Amaranthus retroflexus); experiment: Test G Pre-Emergence Protocol; settings: Amaranthus retroflexus, pre-emergence, 312 h, evaluated after 13 days; for pest or weed control at 15.625 g/ha: 15.625 g ai/ha; for pest or weed control at 15.625 g/ha / pest or weed control at 250 g/ha: read-out: Pigweed, Redroot damage rating (100=total damage to plant; 0=no damage to plant); for pest or weed control at 62.5 g/ha: 62.5 g ai/ha, 100=total damage to plant, 0=no damage to plant, read-out: Pigweed, Redroot damage rating; for pest or weed control at 250 g/ha: 250 g ai/ha
How it was run: as §1

[6] = system: giant foxtail (Setaria faberi); experiment: Test G Pre-Emergence Protocol; settings: Setaria faberi, pre-emergence, 312 h, evaluated after 13 days; for pest or weed control at 15.625 g/ha: 15.625 g ai/ha; for pest or weed control at 15.625 g/ha / pest or weed control at 250 g/ha: read-out: Foxtail, Giant damage rating (100=total damage to plant; 0=no damage to plant); for pest or weed control at 62.5 g/ha: 62.5 g ai/ha, 100=total damage to plant, 0=no damage to plant, read-out: Foxtail, Giant damage rating; for pest or weed control at 250 g/ha: 250 g ai/ha
How it was run: as §1

corn (Zea mays) [7] = experiment: Test G Post-Emergence Protocol; settings: Zea mays, post-emergence, 312 h, read-out: Corn damage rating; for plant injury at 15.625 g/ha: 15.625 g ai/ha, evaluated after 13 days (100=total damage to plant; 0=no damage to plant); for plant injury at 62.5 g/ha: 62.5 g ai/ha; for plant injury at 62.5 g/ha / plant injury at 250 g/ha: evaluated after 13 days, 100=total damage to plant, 0=no damage to plant; for plant injury at 250 g/ha: 250 g ai/ha
How it was run: (§2)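 Foliar application was made 8 days after sowing, using an aqueous spray of the active in acetone/water (50:50) with 0.5% Tween 20, at doses of 15.625, 62.5 or 250 g/ha. Injury was assessed 13 days later, where 100 meant the plant was fully damaged.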

[8] = system: barnyardgrass (Echinochloa crus-galli); experiment: Test G Post-Emergence Protocol; settings: Echinochloa crus-galli, post-emergence, 312 h, read-out: Barnyardgrass damage rating; for pest or weed control at 15.625 g/ha: 15.625 g ai/ha, evaluated after 13 days (100=total damage to plant; 0=no damage to plant); for pest or weed control at 62.5 g/ha: 62.5 g ai/ha; for pest or weed control at 62.5 g/ha / pest or weed control at 250 g/ha: evaluated after 13 days, 100=total damage to plant, 0=no damage to plant; for pest or weed control at 250 g/ha: 250 g ai/ha
How it was run: as §2

[9] = system: velvetleaf (Abutilon theophrasti); experiment: Test G Post-Emergence Protocol; settings: Abutilon theophrasti, post-emergence, 312 h, read-out: Velvetleaf damage rating; for pest or weed control at 15.625 g/ha: 15.625 g ai/ha, evaluated after 13 days (100=total damage to plant; 0=no damage to plant); for pest or weed control at 62.5 g/ha: 62.5 g ai/ha; for pest or weed control at 62.5 g/ha / pest or weed control at 250 g/ha: evaluated after 13 days, 100=total damage to plant, 0=no damage to plant; for pest or weed control at 250 g/ha: 250 g ai/ha
How it was run: as §2

[10] = system: ivy-leaved morning glory (Ipomoea hederacea); experiment: Test G Post-Emergence Protocol; settings: Ipomoea, post-emergence, 312 h, read-out: Morningglory, Ivy-leaved damage rating; for pest or weed control at 15.625 g/ha: 15.625 g ai/ha, evaluated after 13 days (100=total damage to plant; 0=no damage to plant); for pest or weed control at 62.5 g/ha: 62.5 g ai/ha; for pest or weed control at 62.5 g/ha / pest or weed control at 250 g/ha: evaluated after 13 days, 100=total damage to plant, 0=no damage to plant; for pest or weed control at 250 g/ha: 250 g ai/ha
How it was run: as §2

[11] = system: redroot pigweed (Amaranthus retroflexus); experiment: Test G Post-Emergence Protocol; settings: Amaranthus retroflexus, post-emergence, 312 h, read-out: Pigweed, Redroot damage rating; for pest or weed control at 15.625 g/ha: 15.625 g ai/ha, evaluated after 13 days (100=total damage to plant; 0=no damage to plant); for pest or weed control at 62.5 g/ha: 62.5 g ai/ha; for pest or weed control at 62.5 g/ha / pest or weed control at 250 g/ha: evaluated after 13 days, 100=total damage to plant, 0=no damage to plant; for pest or weed control at 250 g/ha: 250 g ai/ha
How it was run: as §2

[12] = system: giant foxtail (Setaria faberi); experiment: Test G Post-Emergence Protocol; settings: Setaria faberi, post-emergence, 312 h, read-out: Foxtail, Giant damage rating; for pest or weed control at 15.625 g/ha: 15.625 g ai/ha, evaluated after 13 days (100=total damage to plant; 0=no damage to plant); for pest or weed control at 62.5 g/ha: 62.5 g ai/ha; for pest or weed control at 62.5 g/ha / pest or weed control at 250 g/ha: evaluated after 13 days, 100=total damage to plant, 0=no damage to plant; for pest or weed control at 250 g/ha: 250 g ai/ha
How it was run: as §2

| Structure (SMILES) | plant injury at 15.625 g/ha (corn (Zea mays) [1]) [%] | plant injury at 62.5 g/ha (corn (Zea mays) [1]) [%] | plant injury at 250 g/ha (corn (Zea mays) [1]) [%] | pest or weed control at 15.625 g/ha [2] [%] | pest or weed control at 62.5 g/ha [2] [%] | pest or weed control at 250 g/ha [2] [%] | pest or weed control at 15.625 g/ha [3] [%] | pest or weed control at 62.5 g/ha [3] [%] | pest or weed control at 250 g/ha [3] [%] | pest or weed control at 15.625 g/ha [4] [%] | pest or weed control at 62.5 g/ha [4] [%] | pest or weed control at 250 g/ha [4] [%] | pest or weed control at 15.625 g/ha [5] [%] | pest or weed control at 62.5 g/ha [5] [%] | pest or weed control at 250 g/ha [5] [%] | pest or weed control at 15.625 g/ha [6] [%] | pest or weed control at 62.5 g/ha [6] [%] | pest or weed control at 250 g/ha [6] [%] | plant injury at 15.625 g/ha (corn (Zea mays) [7]) [%] | plant injury at 62.5 g/ha (corn (Zea mays) [7]) [%] | other results |
| --- | --- | --- | --- | --- | --- | --- | --- | --- | --- | --- | --- | --- | --- | --- | --- | --- | --- | --- | --- | --- | --- |
| CN1C[C@H](c2ccc(C(F)(F)F)cc2)[C@@H](C(=O)Nc2cccc(F)[n+]2[O-])C1=O (racemic) [Compound 1814] | 0 | 0 | 0 | 0 | 0 | 0 | 0 | 0 | 0 | 0 | 0 | 0 | 0 | 0 | 0 | 0 | 0 | 0 | 0 | 0 | plant injury at 250 g/ha (corn (Zea mays) [7]): 0%; pest or weed control at 15.625 g/ha [8]: 0%; pest or weed control at 62.5 g/ha [8]: 0%; pest or weed control at 250 g/ha [8]: 0%; pest or weed control at 15.625 g/ha [9]: 0%; pest or weed control at 62.5 g/ha [9]: 0%; pest or weed control at 250 g/ha [9]: 0%; pest or weed control at 15.625 g/ha [10]: 0%; pest or weed control at 62.5 g/ha [10]: 0%; pest or weed control at 250 g/ha [10]: 0%; pest or weed control at 15.625 g/ha [11]: 0%; pest or weed control at 62.5 g/ha [11]: 0%; pest or weed control at 250 g/ha [11]: 0%; pest or weed control at 15.625 g/ha [12]: 0%; pest or weed control at 62.5 g/ha [12]: 0%; pest or weed control at 250 g/ha [12]: 10% |
| CN1C[C@@H](c2ccc(CO)cc2)[C@H](C(=O)Nc2cccc(F)c2F)C1=O (racemic) [Compound 1820] | 0 | 0 | 0 | 0 | 0 | 0 | 0 | 0 | 0 | 0 | 0 | 0 | 0 | 0 | 0 | 0 | 0 | 0 | 0 | 0 | plant injury at 250 g/ha (corn (Zea mays) [7]): 0%; pest or weed control at 15.625 g/ha [8]: 0%; pest or weed control at 62.5 g/ha [8]: 0%; pest or weed control at 250 g/ha [8]: 0%; pest or weed control at 15.625 g/ha [9]: 0%; pest or weed control at 62.5 g/ha [9]: 0%; pest or weed control at 250 g/ha [9]: 0%; pest or weed control at 15.625 g/ha [10]: 0%; pest or weed control at 62.5 g/ha [10]: 0%; pest or weed control at 250 g/ha [10]: 0%; pest or weed control at 15.625 g/ha [11]: 0%; pest or weed control at 62.5 g/ha [11]: 0%; pest or weed control at 250 g/ha [11]: 0%; pest or weed control at 15.625 g/ha [12]: 0%; pest or weed control at 62.5 g/ha [12]: 0%; pest or weed control at 250 g/ha [12]: 0% |
| CN1C[C@@H](c2cc(Br)cc(Oc3ccccc3)c2)[C@H](C(=O)Nc2cccc(F)c2F)C1=O (racemic) [Compound 1821] | 0 | 10 | 0 | 0 | 0 | 0 | 0 | 0 | 0 | 0 | 0 | 0 | 0 | 0 | 20 | 0 | 10 | 60 | 10 | 10 | plant injury at 250 g/ha (corn (Zea mays) [7]): 30%; pest or weed control at 15.625 g/ha [8]: 0%; pest or weed control at 62.5 g/ha [8]: 0%; pest or weed control at 250 g/ha [8]: 0%; pest or weed control at 15.625 g/ha [9]: 0%; pest or weed control at 62.5 g/ha [9]: 10%; pest or weed control at 250 g/ha [9]: 0%; pest or weed control at 15.625 g/ha [10]: 0%; pest or weed control at 62.5 g/ha [10]: 0%; pest or weed control at 250 g/ha [10]: 10%; pest or weed control at 15.625 g/ha [11]: 0%; pest or weed control at 62.5 g/ha [11]: 30%; pest or weed control at 250 g/ha [11]: 70%; pest or weed control at 15.625 g/ha [12]: 0%; pest or weed control at 62.5 g/ha [12]: 10%; pest or weed control at 250 g/ha [12]: 30% |
